Measured values reported in patent US6235739A, “5-phenyl-3-pyridazinone derivatives and drug composition containing the same” (Nikken Chemicals Co., Ltd., priority 1996, dated 2001).

Assays:
Type IV PDE = assay: Measurement of type IV PDE inhibiting activity; format: biochemical; settings: type IV PDE partially purified from neutrophils; 3H-cAMP substrate; 30 minutes; read-out: Type IV PDE Inhibitory activity IC50
Method: Type I, III, IV, and V PDE isozymes were prepared to study the PDE inhibiting activities and selectivities of the compound of the invention [Trends Pharmacol Sci., 12, 19-27 (1992)]. Type I PDE was purchased from Sigma Corp. Type III and V PDE isozymes were partially purified from rats platelets, and type IV PDE isozyme was partially purified from neutrophils. Each enzyme source was homogenized in a buffer (pH 6.5) containing 20 mM bisTris, 2 mM EDTA, 0.1 mM PMSF (phenylmethylsulfonyl fluoride), 5 mM 2-mercaptoethanol, 0.01 mM pepstatin, and 0.01 mM leupeptin and was centrifuged at 30,000G for 30 minutes to obtain a supernatant, which was applied to a column (1.5×20 cm) packed with an ion-exchange resin (Q-sepharose First Flow, Pharmacia Corp.) and was eluted with sodium acetate gradient of 0 to 1M. Partially purified isozymes were identified by observing the effects of conventional inhibitor.
Each PDE isozyme and test compounds dissolved in DMSO (i.e., dimethyl sulfoxide) were added to 50 mM Tris-HCl buffer containing 5 mM magnesium chloride. ^3 H-cAMP (for type III and IV PDE) or ^3 H-cGMP (for type I and V PDE) were added as substrates and were reacted for 30 minutes. The reaction was terminated by placing the test tube in boiling water of 100° C. for 5 minutes. The nucleotides formed by PDE were broken down by 5'-nucleotidase to ^3 H-adenosine or 3H-guanosine. The unreacted substrate and reaction product were separated through a column packed with an ion-exchange resin (QAE sephadex). The eluted ^3 H-nucleoside was measured for its radioactivity by a liquid scintillation counter. The inhibiting activities of the compound of the present invention against types I, III and V are 1/10 or less than that against type IV.

rat neutrophils = assay: Inhibitory effects on activity of rat neutrophils (release of super oxide anions); format: cell-based; settings: Neutrophil, stimulation with 0.3 μM calcium ionophore A23187, chemiluminescence, read-out: Action for suppressing release of super oxide anions from rat neutrophils IC50
Method: The release of super oxide anions was measured so as to study the inhibitory effects of the compound on inflammatory leukocytes, that is, neutrophils.
Blood sample was obtained from Wister rats anesthetized with ether. It was superposed on a blood cell separation solution (Polymorphoprep 1.113, made by Naicomet Co. (phonetic)) and the neutrophils were separated by centrifugation. The neutrophils were resuspended in a Hank's balanced salt solution at a concentration of 0.5×10^4 cell/ml. 0.1 mM of Lusigenin and the test substance dissolved in DMSO were added to 2 ml of the cell-suspension. The chemiluminescence generated by stimulation of 0.3 μM calcium ionophore A23187 was measured by a chemiluminescence reader so as to evaluate the release of super oxide anions.

[1] = test system: antigen-induced bronchospasm; assay: Inhibitory effect on antigen-induced bronchospasm (anti-asthmatic action); format: in vivo; settings: Cavia porcellus, iv; ovalbumin-sensitized Hartley male guinea pig; intravenously 10 minutes before 0.2 mg/kg OA i.v.; Konzett-Roessler method; read-out: Action for suppressing antigen-induced bronchospasms ED50
Method: A Hartley male guinea pig was sensitized by intramuscular administration of […] Ovalbumin (OA) on first day and fourth day, and used after 24th day. A trachial canula was introduced in the guinea pig anesthetized with pentobarbital and artificial ventilation was performed 25 to 29 days after the first sensitization. The overflow of the ventilation was measured by the Konzett-Roessler method, while 0.2 mg/kg OA were administered intravenously. The test compound was dissolved in polyethylene glycol 400 and intravenously administered 10 minutes before administration of the antigens.

`COc1ccc(C2C=NNC(=O)C2)cc1OC` (stereo not shown) [Compound No. 1, 5-(3,4-dimethoxyphenyl)-2,3,4,5-tetrahydropyridazin-3-one] showed an IC50 (Type IV PDE) of 9300 nM and an IC50 (rat neutrophils) of 14000 nM.
In the case of `COc1ccc(C2C=NN(c3ccccc3)C(=O)C2)cc1OC` (stereo not shown) [Compound No. 2, 5-(3,4-dimethoxyphenyl)-2-phenyl-2,3,4,5-tetrahydropyridazin-3-one], the IC50 (Type IV PDE) is reported as 4200 nM and the IC50 (rat neutrophils) is reported as 1700 nM.
Molecule `COc1ccc(C2C=NNC(=O)C2)cc1OC1CCCC1` (stereo not shown) [Compound No. 3, 5-(3-cyclopentyloxy-4-methoxyphenyl)-2,3,4,5-tetrahydropyridazin-3-one] has an IC50 (Type IV PDE) of 420 nM, an IC50 (rat neutrophils) of 30 nM and an ED50 [1] of 0.4 mg/kg.
`COc1ccc(C2CNNC(=O)C2)cc1OC1CCCC1` (stereo not shown) [Compound No. 4, 5-(3-cyclopentyloxy-4-methoxyphenyl)hexahydropyridazin-3-one] was tested, and the IC50 (Type IV PDE) was 2500 nM and the ED50 [1] was 2.1 mg/kg.
In the case of `COc1ccc(C2C=NN(C)C(=O)C2)cc1OC1CCCC1` (stereo not shown) [Compound No. 5, 5-(3-cyclopentyloxy-4-methoxyphenyl)-2-methyl-2,3,4,5-tetrahydropyridazin-3-one], the IC50 (Type IV PDE) is reported as 670 nM and the IC50 (rat neutrophils) is reported as 430 nM.
Molecule `COc1ccc(C2C=NN(Cc3ccccc3)C(=O)C2)cc1OC1CCCC1` (stereo not shown) [Compound No. 6, 2-benzyl-5-(3-cyclopentyloxy-4-methoxyphenyl)-2,3,4,5-tetrahydropyridazin-3-one] has an IC50 (Type IV PDE) of 180 nM, an IC50 (rat neutrophils) of 130 nM and an ED50 [1] of 3.2 mg/kg.
With `COc1ccc(C2C=NNC(=O)C2)cc1OCc1ccccc1` (stereo not shown) [Compound No. 7, 5-(3-benzyloxy-4-methoxyphenyl)-2,3,4,5-tetrahydropyridazin-3-one] the IC50 (Type IV PDE) was 8700 nM.
`COc1ccc(C2C=NNC(=O)C2)cc1OCCc1ccccc1` (stereo not shown) [Compound No. 8, 5-(4-methoxy-3-phenethyloxyphenyl)-2,3,4,5-tetrahydropyridazin-3-one] showed an IC50 (Type IV PDE) of 1600 nM and an ED50 [1] of 4.2 mg/kg.
`COc1ccc(C2C=NNC(=O)C2)cc1OC1Cc2ccccc2C1` (stereo not shown) [Compound No. 9, 5-[3-(2-indanyloxy)-4-methoxyphenyl]-2,3,4,5-tetrahydropyridazin-3-one] showed an IC50 (Type IV PDE) of 170 nM.
Work on `COc1ccc(C2C=NNC(=O)C2)cc1OCC1CC1` (stereo not shown) [Compound No. 10, 5-(3-cyclopropylmethyloxy-4-methoxyphenyl)-2,3,4,5-tetrahydropyridazin-3-one] yielded an IC50 (Type IV PDE) of 1600 nM and an ED50 [1] of 0.074 mg/kg.
`COc1ccc(C2C=NNC(=O)C2)cc1OCC1(C)CC1` (stereo not shown) [Compound No. 11, 5-[4-methoxy-3-[(1-methylcyclopropyl)methyloxy]phenyl]2,3,4,5-tetrahydropyridazin-3-one] was tested, and the IC50 (Type IV PDE) was 1200 nM and the ED50 [1] was 0.82 mg/kg.
With `COc1ccc(C2C=NNC(=O)C2)cc1OCC(C)C` (stereo not shown) [Compound No. 12, 5-[4-methoxy-3-(2-methylpropoxy)phenyl]-2,3,4,5-tetrahydropyridazin-3-one] the IC50 (Type IV PDE) was 1100 nM and the ED50 [1] was 1.05 mg/kg.
With `CCCCOc1cc(C2C=NNC(=O)C2)ccc1OC` (stereo not shown) [Compound No. 13, 5-(3-butoxy-4-methoxyphenyl)-2,3,4,5-tetrahydropyridazin-3-one] the IC50 (Type IV PDE) was 3400 nM and the ED50 [1] was 1.4 mg/kg.
For `CCC(CC)COc1cc(C2C=NNC(=O)C2)ccc1OC` (stereo not shown) [Compound No. 14, 5-[3-(2-ethylbutoxy)-4-methoxyphenyl]-2,3,4,5-tetrahydropyridazin-3-one], the IC50 (Type IV PDE) was 2300 nM.
`COc1ccc(C2C=NNC(=O)C2)cc1OCC(C)(C)C` (stereo not shown) [Compound No. 15, 5-[3-(2,2-dimethylpropoxy)-4-methoxyphenyl]-2,3,4,5-tetrahydropyridazin-3-one] was tested, and the IC50 (Type IV PDE) was 4800 nM.
`COc1ccc(C2C=NNC(=O)C2)cc1OCCCCCc1ccccc1` (stereo not shown) [Compound No. 16, 5-[4-methoxy-3-(5-phenylpentyloxy)phenyl]-2,3,4,5-tetrahydropyridazin-3-one] gave an IC50 (Type IV PDE) of 330 nM.
For `COc1ccc(C2C=NN(C)C(=O)C2)cc1OC1Cc2ccccc2C1` (stereo not shown) [Compound No. 17, 5-[3-(2-indanyloxy)-4-methoxyphenyl]-2-methyl-2,3,4,5-tetrahydropyridazin-3-one], the IC50 (Type IV PDE) was 630 nM.
Work on `COc1ccc(C2C=NN(C)C(=O)C2)cc1OCC1CC1` (stereo not shown) [Compound No. 18, 5-(3-cyclopropylmethyloxy-4-methoxyphenyl) -2-methyl-2,3,4,5-tetrahydropyridazin-3-one] yielded an IC50 (Type IV PDE) of 4600 nM and an ED50 [1] of 0.12 mg/kg.
`COc1ccc(C2C=NN(C)C(=O)C2)cc1OCCc1ccccc1` (stereo not shown) [Compound No. 19, 5-(4-methoxy-3-phenethyloxyphenyl) -2-methyl-2,3,4,5-tetrahydropyridazin-3-one] gave an IC50 (Type IV PDE) of 2700 nM.
With `COc1ccc(C2C=NN(C)C(=O)C2)cc1OCC(C)C` (stereo not shown) [Compound No. 20, 5-[4-methoxy-3-(2-methylpropoxy)phenyl]-2-methyl-2,3,4,5-tetrahydropyridazin-3-one] the IC50 (Type IV PDE) was 2300 nM and the ED50 [1] was 0.97 mg/kg.
`COc1ccc(C2C=NN(C)C(=O)C2)cc1OCC(C)(C)C` (stereo not shown) [Compound No. 21, 5-[3-(2,2-dimethylpropoxy)-4-methoxyphenyl]-2-methyl-2,3,4,5-tetrahydropyridazin-3-one] gave an IC50 (Type IV PDE) of 3900 nM.
`COc1ccc(C2C=NN(C)C(=O)C2)cc1OCC1(C)CC1` (stereo not shown) [Compound No. 22, 5-[4-methoxy-3-[(1-methylcyclopropyl)methyloxy]phenyl]-2-methyl-2,3,4,5-tetrahydropyridazin-3-one] was tested, and the IC50 (Type IV PDE) was 2700 nM and the ED50 [1] was 2.37 mg/kg.
`CCCCOc1cc(C2C=NN(C)C(=O)C2)ccc1OC` (stereo not shown) [Compound No. 23, 5-(3-butoxy-4-methoxyphenyl)-2-methyl-2,3,4,5-tetrahydropyridazin-3-one] was tested, and the IC50 (Type IV PDE) was 6300 nM and the ED50 [1] was 0.53 mg/kg.
For `CCC(CC)COc1cc(C2C=NN(C)C(=O)C2)ccc1OC` (stereo not shown) [Compound No. 24, 5-[4-methoxy-3-(2-ethylbutoxy)phenyl]-2-methyl-2,3,4,5-tetrahydropyridazin-3-one], the IC50 (Type IV PDE) was 340 nM.
`COc1ccc(C2C=NNC(=O)C2)cc1OCC1(c2ccccc2)CC1` (stereo not shown) [Compound No. 25, 5-[4-methoxy-3-[(1-phenylcyclopropyl)methyloxy]phenyl]-2,3,4,5-tetrahydropyridazin-3-one] was tested, and the IC50 (Type IV PDE) was 750 nM.
With `COc1ccc(C2C=NN(C)C(=O)C2)cc1OCC1(c2ccccc2)CC1` (stereo not shown) [Compound No. 26, 5-[4-methoxy-3-[(1-phenylcyclopropyl)methyloxy]phenyl]-2-methyl-2,3,4,5-tetrahydropyridazin-3-one] the IC50 (Type IV PDE) was 1400 nM.
`COc1ccc(C2CC(=O)NN=C2c2ccccc2)cc1OC1CCCC1` (stereo not shown) [Compound No. 28, 5-(3-cyclopentyloxy-4-methoxyphenyl)-6-phenyl-2,3,4,5-tetrahydropyridazin-3-one] showed an IC50 (Type IV PDE) of 19000 nM.
With `COc1ccc(C2CC(=O)NN=C2C)cc1OC` (stereo not shown) [compound 27, 5-(3,4-dimethoxyphenyl)-6-methyl-2,3,4 5-tetrahydropyridazin-3-one] the IC50 (Type IV PDE) was 18000 nM and the IC50 (rat neutrophils) was 15000 nM.
